What all share (format): biochemical
One test concerns the target GuaB (IMP dehydrogenase) (Bacillus subtilis, UniProt P21879). The experiment in a line: kinetic assay with purified GuaB.
In a further test the target is HprT (Bacillus subtilis, UniProt P37472). Description: kinetic assay with purified HprT.
A further test addresses Gmk (guanylate kinase) (Bacillus subtilis, UniProt O34328). Description: PK/LDH coupled enzymatic assay with purified Gmk.

GuaB (IMP dehydrogenase), sequence (P21879 whole entry): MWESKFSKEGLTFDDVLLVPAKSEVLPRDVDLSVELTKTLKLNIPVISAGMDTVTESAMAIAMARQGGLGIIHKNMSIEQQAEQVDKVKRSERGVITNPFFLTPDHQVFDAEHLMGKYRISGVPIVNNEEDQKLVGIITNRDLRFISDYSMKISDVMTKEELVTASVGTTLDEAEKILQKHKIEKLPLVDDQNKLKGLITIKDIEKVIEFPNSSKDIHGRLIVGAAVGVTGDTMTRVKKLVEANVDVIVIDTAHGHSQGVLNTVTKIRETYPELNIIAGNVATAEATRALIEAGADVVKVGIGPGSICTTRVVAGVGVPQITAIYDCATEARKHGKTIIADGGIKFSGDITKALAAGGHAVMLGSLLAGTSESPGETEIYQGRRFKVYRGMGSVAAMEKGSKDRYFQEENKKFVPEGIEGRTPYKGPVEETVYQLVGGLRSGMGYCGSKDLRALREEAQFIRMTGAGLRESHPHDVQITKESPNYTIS
HprT, sequence (P37472 whole entry): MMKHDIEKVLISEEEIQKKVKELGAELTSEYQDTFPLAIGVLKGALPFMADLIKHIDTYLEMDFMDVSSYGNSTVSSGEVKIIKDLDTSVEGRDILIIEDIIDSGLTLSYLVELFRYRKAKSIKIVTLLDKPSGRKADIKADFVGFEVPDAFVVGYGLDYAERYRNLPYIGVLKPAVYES
Gmk (guanylate kinase), sequence (O34328 whole entry): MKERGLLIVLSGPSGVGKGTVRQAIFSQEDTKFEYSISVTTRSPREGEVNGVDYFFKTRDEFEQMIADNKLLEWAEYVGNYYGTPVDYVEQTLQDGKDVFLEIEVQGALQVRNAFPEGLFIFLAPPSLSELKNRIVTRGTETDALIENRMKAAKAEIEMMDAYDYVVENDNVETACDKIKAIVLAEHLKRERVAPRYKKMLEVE

As usually defined, the IC50 is the midpoint of a concentration-inhibition curve. Read a high IC50 as weaker potency. `Nc1nc2c(ncn2[C@@H]2O[C@H](COP(=O)(O)OP(=O)(O)O)[C@@H](OP(=O)(O)OP(=O)(O)O)[C@H]2O)c(=O)[nH]1` [ppGpp]: the IC50 is approximately 500 µM against GuaB (IMP dehydrogenase), approximately 11 µM against HprT and approximately 20 µM on Gmk (guanylate kinase).

As to `Nc1nc2c(ncn2[C@@H]2O[C@H](COP(=O)(O)OP(=O)(O)OP(=O)(O)O)[C@@H](OP(=O)(O)OP(=O)(O)O)[C@H]2O)c(=O)[nH]1` [pppGpp], the IC50 against GuaB (IMP dehydrogenase) was approximately 300 µM; against HprT it was approximately 11 µM; against Gmk (guanylate kinase), approximately 20 µM.

Source of the values: PMC3483369 (Molecular cell, 2012).
